Consider two compounds from patent publication US20240374616A1, “USE OF TERPENOIDS IN THE TREATMENT OF MASTOCYTOMA” (ARJIL BIOTECH HOLDING COMPANY LIMITED, priority 2021, published 2024).

One data set relates to RBL-2H3 cells. The data set can be described thus: β-hexosaminidase release assay in RBL-2H3 cells. It is filed as cell-based. Particulars: under the safety dose, compared with DMSO, FIG. 1. The procedure:
β-hexosaminidase Release Assay
RBL-2H3 cells were seeded into 24 well plate (0.5×10^5 cells/0.5 mL/well), and drug treatment was added every other day for 24 hours. On the third day, 500 μL of Anti-DNP-IgE (0.1 μg/mL) was added overnight. On the fourth day, add 160 μL DNP-BSA (0.1 μg/mL in Tyrode's buffer) to each well and react at 37° C. for 1 hour. For each well in 24 wells, 50 μL of cell supernatant was mixed with 50 μL of P-NAG (triplicates), and 96 well plates were reacted at 37° C. for 1 hour. Add 100 μL of stop buffer and measure the absorbance at 405 nm, which is the β-hexosaminidase data. For 24 well plates, add 300 μL of MTT reagent (0.5 mg/mL) to each well, react at 37° C. for 2 hours, remove the supernatant, add 300 μL of DMSO to each well, and measure the absorbance at 570 nm. The data were calculated by one-way ANOVA with Dunnett's test (* […], ** p<0.01, *** p<0.001, **** p<0.0001), and plotted with Graph pad.
The results from triplicate determinations are presented as the percentage of viable cells. Statistical analysis was performed using one-way ANOVA (Dunnett's multiple comparisons test). Results are presented as the mean ±SD from at least three independent experiments. Statistical significance is indicated (ns: no significance, ** p<0.01, *** p<0.001, **** p<0.0001, compared with DMSO).

Data set [1] can be described thus: Cell Counting Kit-8 assay of cell viability on P815 cells. It is filed as cell-based. Particulars: mouse, P815 mastocytoma cells, read-out: Cell viability (%) Mean ± SD. The procedure: Mouse mastocytoma cells purchased from the Bioresource Collection and Research Center (Hsinchu City, Taiwan) and were cultured with Dulbecco's modified Eagle's (DMEM) medium (Gibco, Carlsbad, California, USA) that was supplemented with 10% fetal bovine serum (Gibco, Carlsbad, California, USA), 100 U/ml penicillin, and 100 μg/ml streptomycin.
(§1) 1×10^5 cells per well of P815 cells were pretreated with terpenoids for 18 h. 5 μL Cell Counting Kit-8 reagent was added to each well, incubating for 4 h followed by optical density determination at 450 nm by a microplate reader (Tecan Sunrise). The mean optical density (OD, absorbance) from four wells of the indicated group was used to calculate the percentage of cell viability as the formula as follows: [(ODexperiment-ODblank)/(ODcontrol-ODblank)]×100%, where ODexperiment is the absorbance of cells treated with […] terpenoid-treated cells, and ODblank is the absorbance of a well with medium only. ODcontrol is the absorbance of cells treated with 0.1% DMSO only.
as §1, with “Mouse mastocytoma cells purchased from the Bioresource Collection and Research Center (Hsinchu City, Taiwan) and were cultured with Dulbecco's modified Eagle's (DMEM) medium (Gibco, Carlsbad, California, USA) that was supplemented with 10% fetal bovine serum (Gibco, Carlsbad, California, USA), 100 U/ml penicillin, and 100 μg/ml streptomycin. 1×10^5” for “1×10^5”, “terpenoids-treated” for “terpenoid-treated”
A general note: Tetrazolium assays rely on reduction of a dye to a coloured formazan, in cell work by metabolically active cells.

A further data set relates to P815 mast cell tumor. The data set is described as follows: H&E histopathological analysis of P815 tumor tissues. It is filed as in vivo, mice. Particulars: FIG. 11; 0.06 mg. The procedure: Mice were sacrificed on day 30, and tumors were removed, fixed with 10% formalin, 5% formic acid, and embedded in paraffin. Briefly, tumor sections were stained with hematoxylin and eosin (H&E) and analyzed by microscopy. Tissue sections were dewaxed with Xylene, and then treated with ethanol (100%, 95%, 75%, 50%). Tissues were stained with Hematoxylin for 1 minute and Eosin for 5 minutes.
The mice were administrated 100 μL samples intravenously every 2 days and sacrificed on the 30th day for histopathological examinations.

`C=C1C(=O)O[C@H]2/C=C(\C)CC3C=C(CC/C=C(\C)CC[C@H]12)C(=O)O3` (stereo partly drawn) [AR100-DS1, Ovatodiolide]: in the data set with RBL-2H3 cells, the β-hexosaminidase release result was “significantly lower”. Besides, the viability (in general, a read-out of living cells in per cent, often relative to untreated cells) at 18 h, 1 mg/mL in data set [1] (1 mg/mL) worked out at 42.4 ± 1.84%. Further, in data set [1] (2 mg/mL), the viability at 18 h, 2 mg/mL came to 39.5 ± 3.09%. For the same compound, in data set [1] (3 mg/mL), the viability at 18 h, 3 mg/mL worked out at 40.8 ± 1.25%. Moreover, the viability at 18 h, 4 mg/mL in data set [1] (4 mg/mL) turned out to be 43.3 ± 0.65%. In data set [1] (5 mg/mL), the viability at 18 h, 5 mg/mL was 41.4 ± 1.81%.

Take `C=C(CC[C@@H](C(=O)O)[C@H]1CC[C@@]2(C)C3=CC[C@H]4C(C)(C)[C@@H](O)CC[C@]4(C)C3=CC[C@]12C)C(C)C` [AR101-DS4, Dehydroeburicoic Acid]: the viability at 18 h, 0.02 mg/mL in data set [1] (0.02 mg/mL) is 181 ± 30.4%. In data set [1] (0.04 mg/mL), the viability at 18 h, 0.04 mg/mL came out at 69.3 ± 4.58%. For the same compound, the viability at 18 h, 0.06 mg/mL in data set [1] (0.06 mg/mL) was determined as 49.7 ± 2.62%. The viability at 18 h, 0.08 mg/mL in data set [1] (0.08 mg/mL) amounted to 54.3 ± 1.85%. In data set [1] (0.1 mg/mL), the viability at 18 h, 0.1 mg/mL was determined as 49.1 ± 2.52%. The “H&E histological stain of tumor tissues” value in the data set on P815 mast cell tumor is “arrest the tumor cell proliferation and cause the tumor cell nucleus aggregation”.
